Measurements from patent EP4744648A1, “LIPOPEPTIDE-CONTAINING FAT-DISSOLVING PRODUCT, AND PREPARATION METHOD THEREFOR AND USE THEREOF” (Bloomage Biotechnology Corporation Limited, priority 2023, dated 2024).

Legend:
[1] = system: transgenic obese (ob/ob) mice; experiment: Degradation of gluteal adipose tissue after injection into adipose pads of the left buttock (H-E sections, site observation); type: in vivo; settings: Example 4, 1 %
Method: 6-week-old transgenic obese (ob/ob) mice were used as the animal model. Different drugs were injected into the adipose pads of the left buttock. The mice were totally divided into three groups with 7-10 mice per group, as specified below. • 1) Negative control group: injected with 200 µL of sterile normal saline; • 2) 1% sodium deoxycholate group: injected with 200 µL of sterile normal saline solution containing 1% sodium deoxycholate; • 3) 0.1% surfactin HXRZ group: injected with 200 µL of sterile normal saline solution containing 0.1% surfactin HXRZ.
The day of the first administration was defined as Day 1 of the experiment. Additional administrations were performed on Day 3 and Day 5, respectively. The general condition and administration sites of the mice were observed regularly throughout the experiment. On Day 21 of the experiment, the mice were sacrificed and dissected. The adipose tissue of the left buttock was isolated, fixed immediately in adipose tissue fixative, and then embedded in paraffin. The adipose tissue was stained by hematoxylin and eosin staining for pathological examination, followed by observation and analysis under an optical microscope.
Specifically, 6-week-old transgenic obese (ob/ob) mice were used as the animal model, with one mouse per group. 200 µL each of 0.5% and 1% surfactin HXRZ normal saline solutions (test samples) were injected into the adipose pads of the left buttock, respectively. The day of the first administration was defined as Day 1 of the experiment. Additional administrations were performed on Day 3 and Day 5, respectively. The general condition and administration sites of the mice were observed regularly throughout the experiment. On Day 21 of the experiment, the mice were sacrificed and dissected. The adipose tissue of the left buttock of the mice was isolated, fixed immediately in adipose tissue fixative, and then embedded in paraffin. The adipose tissue was stained by hematoxylin and eosin staining for pathological examination, followed by observation and analysis under an optical microscope.

[2] = system: Mouse adipocyte cell line 3T3-F442A; experiment: In vitro cytotoxicity test: relative growth rate of cells by CCK-8; type: cell-based
Method: In accordance with GB/T 16886.5 Biological evaluation of medical devices-Part 5: In vitro cytotoxicity tests (GB/T 16886.5-2017/ISO 10993-5:2009, IDT), and the test was performed with reference to the methods specified therein. The detailed experimental procedures are as follows:
Mouse adipocyte cell line 3T3-F442A in the logarithmic growth phase was seeded into a 96-well plate at a density of 1×10^5 cells/mL, with 100 µL per well. The culture medium consisted of a basal culture medium supplemented with 10% fetal bovine serum. The seeded cells were incubated conventionally in a carbon dioxide incubator at 37°C and 5% CO2 for 24 h.
The solution was freshly prepared before use.
After routine incubation for 24 h, the old culture medium was discarded, and then 100 µL of sample solution was added to replace it in the experimental group. An equal volume of serum-free culture medium was added to the normal control group. Each concentration was set up with at least three replicate wells.
After another incubation for 24 h, the relative growth rate of cells was detected by CCK-8. The culture medium was discarded, 100 µL of CCK-8 diluted 10-fold with the serum-free medium was added to each well. The plate was incubated in a cell incubator for another 2 h. The absorbance was determined using a microplate reader at a wavelength of 450 nm. The relative growth rate (RGR) is a ratio of the absorbance of the experimental group to the absorbance of the normal control group.
The experimental procedures in Example 3 were the same as those in Example 2 except that treatment durations were 0.5 h, 4 h and 24 h. The determination results of the relative growth rates of 3T3-F442A cells treated with surfactin HXRZ and sodium deoxycholate for different durations are shown in Table 3. Table 3 Relative growth rate (%)
3T3-F442A mouse adipocytes in the logarithmic growth phase were seeded into a 96-well plate at a density of 1 × 10^5 cells/mL, with 100 µL per well. After incubation for 24 h, the culture medium was replaced with 100 µL of culture medium containing different concentrations of samples. An equal volume of serum-free culture medium was added to the blank control group, and the incubation was continued for another 24 h. The relative growth rate of cells was determined by CCK-8. The blank control was set as 100%, the relative growth rate and half inhibitory concentration of each group were calculated. The method was the same as that in Example 2.

[3] = system: Kunming mice; experiment: Efficacy and side effects on degradation of inguinal adipose tissue, subcutaneous injection once every 14 days; type: in vivo; settings: 1 %; for Adipocyte density (n/mm^2): day 42, M±SEM
Method: The adipocyte density was then calculated.
Table 6 Local inflammation in mice of each group

[4] = system: Female Kunming mice; experiment: Animal experiment comparing surfactin-C14 and surfactin-C15: subcutaneous injection in right inguinal region, four administrations; type: in vivo
Excerpt: The higher drug concentration indicated the more obvious effect.

[5] = Observation of solubility in water; type: physicochemical; settings: added to water; room temperature
[6] = system: Kunming mice; experiment: Preliminary study on degradation of inguinal adipose tissue, subcutaneous injection once every 7 days; type: in vivo; settings: for ulceration at the administration sites: 200 µL s.c. left inguinal, after two administrations, n = 3
Method: Administration was performed once every 7 days. […] 7-9.

[7] = Surface tension at serial dilutions (CMC value determination), automatic interfacial tensiometer; type: physicochemical
Method: A 0.1% surfactin HXRZ solution and a sodium deoxycholate solution were separately prepared using purified water, followed by serial dilution to obtain different gradient concentrations. The surface tensions at different concentrations were determined respectively via a JZ-200A automatic interfacial tensiometer. Table 1 CMC value determination results

[8] = system: Mouse adipocyte cell line 3T3-F442A; experiment: In vitro cytotoxicity test: relative growth rate of cells by CCK-8; type: cell-based; settings: 0.5 mg/mL
[9] = 10 mg/mL, four administrations, H-E sections

In the case of Sodium deoxycholate, the “degradation of adipose tissue at the administration sites (H-E sections, FIG. 5)” value ([1]; 200 µL in normal saline, left buttock, Days 1, 3, 5, Day 21) is reported as “induced the degradation of adipose tissue at the administration sites”, the “mice with obvious induration palpable at the administration sites” value ([1]; 200 µL, 7-10 mice per group) is reported as “three” and the “mice with ulceration at the administration site” value ([1]; 200 µL, 7-10 mice per group) is reported as “one”. For the same substance, the “treatment time at which adipocytes were completely lysed” value ([2]; 0.5 mg/mL) was 0.5 h, the “half maximal inhibitory concentrations IC50” value ([2]; 3T3-F442A adipocytes, 24 h, calculated from Table 2 curves) was 260.5 µg/mL and the “Relative growth rate (%)” value ([2]; Example 2, 0.125 mg/mL, 24 h, 3T3-F442A) was 98.64±1.74%. The “Relative growth rate (%)” value ([2]; Example 2, 0.25 mg/mL, 24 h, 3T3-F442A) was 55.58±3.66%, the “Relative growth rate (%)” value ([2]; Example 2, 0.3 mg/mL, 24 h, 3T3-F442A) was 23.83±3.45% and the “Relative growth rate (%)” value ([2]; Example 2, 0.4 mg/mL, 24 h, 3T3-F442A) was 10.92±0.48%. For the same substance, the “Relative growth rate (%)” value ([2]; Example 2, 0.5 mg/mL, 24 h, 3T3-F442A) was 10.7±0.11%, the “Relative growth rate (%)” value ([2]; Example 3, 0.3 mg/mL, 0.5 h) was 71.17±4.00% and the “Relative growth rate (%)” value ([2]; Example 3, 0.3 mg/mL, 4 h) was 61.46±9.30%. For the same substance, the “Relative growth rate (%)” value ([2]; Example 3, 0.3 mg/mL, 24 h) was 10.70±3.45%, the “Relative growth rate (%)” value ([2]; Example 3, 0.4 mg/mL, 0.5 h) was 28.78±6.59% and the “Relative growth rate (%)” value ([2]; Example 3, 0.4 mg/mL, 4 h) was 23.81±1.24%. For the same substance, the “Relative growth rate (%)” value ([2]; Example 3, 0.4 mg/mL, 24 h) was 10.92±0.48%, the “Relative growth rate (%)” value ([2]; Example 3, 0.5 mg/mL, 0.5 h) was 12.78±0.67% and the “Relative growth rate (%)” value ([2]; Example 3, 0.5 mg/mL, 4 h) was 17.24±0.02%. For the same substance, the “Relative growth rate (%)” value ([2]; Example 3, 0.5 mg/mL, 24 h) was 10.69±0.11%, the “Adipose tissue weight” value ([3]; 200 µL s.c. left inguinal, once every 14 days, day 42, n = 9) was 0.1889 ± 0.0270 g and the “Adipocyte density (n/mm^2)” value ([3]; 200 µL s.c.) was 727.84±56.64 n/mm^2. For the same substance, the “Adipocyte density (n/mm^2)” value ([3]; 200 µL s.c., listed as sodium deoxycholate) was 727.84±56.64 n/mm^2, the “Fat index (%)” value ([3]; 200 µL s.c., day 42, treated-side inguinal adipose weight/body weight × 100%) was 0.49±0.07 % and the “Subcutaneous nodule and induration” value ([3]; Day 1, number of mice (n = 9)) was 0. The Ulceration ([3]; Day 1, number of mice (n = 9)) was 0, the “Subcutaneous nodule and induration” value ([3]; Day 7, number of mice (n = 9)) was 0 and the Ulceration ([3]; Day 7, number of mice (n = 9)) was 2. For the same substance, the “Subcutaneous nodule and induration” value ([3]; Day 14, number of mice (n = 9)) was 2, the Ulceration ([3]; Day 14, number of mice (n = 9)) was 0 and the “Subcutaneous nodule and induration” value ([3]; Day 21, number of mice (n = 9)) was 8. The Ulceration ([3]; Day 21, number of mice (n = 9)) was 0, the “Subcutaneous nodule and induration” value ([3]; Day 28, number of mice (n = 9)) was 5 and the Ulceration ([3]; Day 28, number of mice (n = 9)) was 0. For the same substance, the “Subcutaneous nodule and induration” value ([3]; Day 35, number of mice (n = 9)) was 4, the Ulceration ([3]; Day 35, number of mice (n = 9)) was 0 and the “Subcutaneous nodule and induration” value ([3]; Day 42, number of mice (n = 9)) was 4. For the same substance, the Ulceration ([3]; Day 42, number of mice (n = 9)) was 0, the “ulceration at the administration sites over the administration cycle” value ([3]; entire administration cycle) was “ulceration was observed at the administration sites” and the “Incidence of local adverse reactions, Fourth administration” value ([4]; 10 mg/mL, 200 µL s.c.) was 83.33%. The “Incidence of local adverse reactions, Second administration” value ([4]; 10 mg/mL, 200 µL s.c.) was 75.00%, the “Incidence of local adverse reactions, Third administration” value ([4]; 10 mg/mL, 200 µL s.c.) was 66.67% and the “Incidence of local adverse reactions, First administration” value ([4]; 10 mg/mL, 200 µL s.c., percentage of mice with abnormalities at the administration site) was 62.50%. For the same substance, the “Mean wet adipose tissue weight/body weight percentage (x±SEM, %)” value ([4]; 10 mg/mL, four administrations) was 0.57±0.05 %, the “Mean wet adipose tissue weight (x±SEM, unit: g)” value ([4]; 10 mg/mL, four administrations once every 14 days, right inguinal) was 0.224 ± 0.022 g and the “Mean adipocyte area (x±SEM, mm^2)” value [4, 9] was 0.003751±0.000614 mm^2. For the same substance, the “Mean adipocyte density (x±SEM, n/mm^2)” value [4, 9] was 322.3211±55.3047 n/mm^2, the “incidence of adverse reactions” value ([4]; over all four administrations, except first administration in the HXRZ-B high-dose group) was “exceeded 60%” and the solubility in water [5] was “poorly soluble”. The “ulceration at the administration sites” value ([6]; 1 %) was “visible ulceration was observed at the administration sites”, the healing of ulceration ([6]; 1 %, after a 7-day administration interval) was “healed completely” and the “ulceration at the administration sites” value ([6]; 2 %) was “ulceration occurred at the administration sites in all mice”. For the same substance, the healing of ulcers ([6]; 2 %, within the subsequent 7 days) was “failed to heal”, the Surface tension value ([7]; solution concentration 0.00078125 % in purified water) was 68.51 mN/m and the Surface tension value ([7]; solution concentration 0.0015625 % in purified water) was 66.57 mN/m. The Surface tension value ([7]; solution concentration 0.003125 % in purified water) was 65.06 mN/m, the Surface tension value ([7]; solution concentration 0.00625 % in purified water) was 63.17 mN/m and the Surface tension value ([7]; solution concentration 0.0125 % in purified water) was 60.50 mN/m. The Surface tension value ([7]; solution concentration 0.025 % in purified water) was 57.94 mN/m, the Surface tension value ([7]; solution concentration 0.05 % in purified water) was 55.40 mN/m and the Surface tension value ([7]; solution concentration 0.1 % in purified water) was 53.47 mN/m. For the same substance, the Surface tension value ([7]; solution concentration 0.1 % in purified water, listed as sodium deoxycholate) was 53 mN/m, the “cell morphology of adipocytes (inverted microscope, FIG. 4)” value ([8]; 4 h) was “nearly all cells died” and the “cell morphology of adipocytes (inverted microscope, FIG. 4)” value ([8]; 24 h) was “nearly all cells died”.
